Values of other authors, collected in patent US20230390178A1, “Skin Care Compositions and Methods of Use” (Colgate-Palmolive Company, priority 2022, published 2023).

O=C1O[C@H]([C@@H](O)CO)C(O)=C1O[C@H]1O[C@H](CO)[C@@H](O)[C@H](O)[C@H]1O [ascorbyl glucoside]
Log P: −2.5
